Experimental data from US20110021575A1, “PENETRATION ENHANCERS FOR INSECTICIDAL AGENTS” (priority 2006, published 2011).

Assay: Penetration test: penetration of active substance through enzymatically isolated apple leaf cuticles in diffusion cells
Assay type: in vitro ADME, apple trees of the Golden Delicious variety
Conditions: cuticular penetration of imidacloprid, at 20° C., 60%, imidacloprid 0.3 g/l (ai alone) or 0.2 g/l (with surfactant), mean values of 5-8 repetitions
Procedure: In this test, the penetration of active substances through enzymatically isolated cuticles of apple tree leaves was measured.
Leaves which were cut off in the stage of full development of apple trees of the Golden Delicious variety were used. The isolation of the cuticles was effected in a manner such that • first leaf discs marked on the underside with dye and punched out were filled by means of vacuum infiltration with a pectinase solution (0.2 to 2% strength) buffered to a pH between 3 and 4, • sodium azide was then added and • the leaf discs thus treated were allowed to stand until disintegration of the original leaf structure and detachment of the noncellular cuticle.
Thereafter, only those cuticles of the upper sides of the leaves which were free of staltoa and hairs were further used. They were washed several times alternately with water and a buffer solution at pH 7. The clean cuticles obtained were finally drawn onto small Teflon plates and smoothed and dried with a gentle air jet.
In the next step, the cuticle membranes thus obtained were placed in stainless steel diffusion cells (=transport chambers) for membrane transport investigations. For this purpose, the cuticles were placed by means of forceps centrally on the silicone grease-coated edges of the diffusion cells and closed with a likewise greased ring. The arrangement was chosen so that the morphological outside of the cuticles faced outwards, i.e. towards the air, while the original inside faced the interior of the diffusion cell. The diffusion cells were filled with water or with a mixture of water and solvent. […]
After the application of the spray liquors, in each case the water was allowed to evaporate, and in each case the chambers were then turned around and were placed in thermostated trays, air having a defined temperature and atmospheric humidity being blown onto the outside of the cuticle. […] The active substance penetration was measured with radioactively marked active substance.

In the case of `O=[N+]([O-])NC1=NCCN1Cc1ccc(Cl)nc1` [Imidacloprid (ai), imidacloprid], the “Penetration after 5 hours” value (after 5 hours) is reported as 0.1%, the “Penetration after 1 day” value (after 1 day) is reported as 0.3% and the “Penetration after 2 days” value (after 2 days) is reported as 0.5%.
